Experimental data from US5863776A, “Method of preparing apoenzyme” (Research Development Foundation, priority 1996, dated 1999).
Where a chain is given by its changes, count along the chain named. In names and notes the source's numbering stands.

T1: MAO B (Homo sapiens, UniProt P27338)
T1 construct: expressed in transfected cells; host or cells: COS-7 (African green monkey), riboflavin-containing (Rib+) or riboflavin-depleted (Rib-), transient electroporation
T1 sequence (P27338 1-520): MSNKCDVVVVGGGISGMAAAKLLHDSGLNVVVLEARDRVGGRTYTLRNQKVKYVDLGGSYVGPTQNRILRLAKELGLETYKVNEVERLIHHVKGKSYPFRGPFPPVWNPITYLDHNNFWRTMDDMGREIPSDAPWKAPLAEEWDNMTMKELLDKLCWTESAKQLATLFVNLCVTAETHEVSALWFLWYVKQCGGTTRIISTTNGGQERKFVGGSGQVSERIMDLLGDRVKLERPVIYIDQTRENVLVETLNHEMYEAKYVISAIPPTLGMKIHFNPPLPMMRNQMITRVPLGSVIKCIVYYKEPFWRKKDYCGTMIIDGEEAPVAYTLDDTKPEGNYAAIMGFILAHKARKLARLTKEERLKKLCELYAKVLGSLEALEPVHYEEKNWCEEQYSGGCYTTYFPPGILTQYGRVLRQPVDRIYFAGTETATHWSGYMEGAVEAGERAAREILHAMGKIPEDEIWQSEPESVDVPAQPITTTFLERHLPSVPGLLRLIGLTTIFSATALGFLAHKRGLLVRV

B1: wild-type: wild-type MAO B expressed in Rib^- COS-7 cells (protein, UniProt P27338 2-520, looked up)
Amine oxidase …: SNKCDVVVVGGGISGMAAAKLLHDSGLNVVVLEARDRVGGRTYTLRNQKVKYVDLGGSYVGPTQNRILRLAKELGLETYKVNEVERLIHHVKGKSYPFRGPFPPVWNPITYLDHNNFWRTMDDMGREIPSDAPWKAPLAEEWDNMTMKELLDKLCWTESAKQLATLFVNLCVTAETHEVSALWFLWYVKQCGGTTRIISTTNGGQERKFVGGSGQVSERIMDLLGDRVKLERPVIYIDQTRENVLVETLNHEMYEAKYVISAIPPTLGMKIHFNPPLPMMRNQMITRVPLGSVIKCIVYYKEPFWRKKDYCGTMIIDGEEAPVAYTLDDTKPEGNYAAIMGFILAHKARKLARLTKEERLKKLCELYAKVLGSLEALEPVHYEEKNWCEEQYSGGCYTTYFPPGILTQYGRVLRQPVDRIYFAGTETATHWSGYMEGAVEAGERAAREILHAMGKIPEDEIWQSEPESVDVPAQPITTTFLERHLPSVPGLLRLIGLTTIFSATALGFLAHKRGLLVRV
B2: V10I: control variant, Val in position 10 replaced with Ile (protein, UniProt P27338 2-520, looked up, variant V10I)
Amine oxidase …: B1 Amine oxidase … with V9I

Columns and labels:
[1] = molecular target: T1, MAO B; assay: FAD coupling in intact cells: MAO B enzymatic activity after electroporation of MAO B cDNA with cofactor into Rib^- COS-7 cells ([^14 C] benzylamine substrate); format: cell-based; parameters: Percent of Holo-MAO B Activity: concentration or dose not given beside the values; details: for Enzymatic Activity: cofactor added with MAO B cDNA into Rib^- COS-7 cells, 48 hours, mean ± SE, three experiments; for Percent of Holo-MAO B Activity: relative to holo-MAO B expressed in Rib^+ COS-7 cells, 2880 min; for restoration of active MAO B (in words): cofactor added with MAO B cDNA during electroporation
Description: (§1) Wild-type or mutant MAO B cDNAs were transiently transfected into COS-7 cells by electroporation (23) as previously described (18). Briefly, Rib^+ - or Rib^- COS-7 cells were harvested during late log phase growth and resuspended to a concentration of 3.1×10^6 cells/ml in either riboflavin-containing or riboflavin-free medium, respectively. Wild-type or mutant MAO B cDNAs ([…]) were added to 0.8 ml of cell suspension. […] Electroporation was carried out in a Bio-Rad Gene Pulser with a setting of 250 V and 500 μF. Cells were resuspended in 15 ml of riboflavin-containing or riboflavin-free medium and incubated at 37° C. with 5% CO2. Transfected COS-7 cells were harvested at 48 hours and homogenized in a lysis solution containing 20 mM Tris-HCl, 1 mM EDTA, 0.5 mM PMSF, pH 8.0. The homogenate was diluted with an equal volume of the same buffer supplemented with 300 mM NaCl to obtain a 150 mM final NaCl concentration. Triton X-100 (Pierce) was added to the lysate to give a final concentration of 0.25%, and the samples were allowed to stir for 50 min. at 4° C. to extract MAO B from the outer mitochondrial membrane. After Triton extraction, the lysate was centrifuged at 1300×g for 5 min. at 4° C. to remove insoluble cell debris.
MAO B activity was assayed radiometrically by a modification of the method of Wurtman and Axelrod (26) as described previously (18). Briefly, the reaction mixture contained 200 μl of 50 mM sodium phosphate buffer (pH 7.4), 3.6 nmole of 55 mCi/mmol [^14 C] benzylamine hydrochloride (Amersham), 10 nmoles of unlabeled benzylamine and 10 μl of cell lysate. Samples were run in triplicate, and one out of each set was denatured with […] of 6N HCl prior to the addition of substrate to serve as an internal control. All reactions were incubated for 9 minutes at 37° C., and terminated by the addition of 25 μl of 6N HCl. The reaction product was extracted with 500 μl of toluene, and an aliquot (200 μl) of the organic phase from each sample was counted in liquid scintillation fluid (Bio-Safe) in a Beckman LB 3801 scintillation counter.
FMN or riboflavin were also capable of restoring approximately 75% of MAO B holoenzyme activity. However, only 40% of MAO B holoenzyme activity was obtained by the addition of 8α-hydroxyriboflavin.
Various cofactors were added with MAO B cDNA into Rib^- COS7 cells

[2] = molecular target: T1, MAO B; assay: Quantitation of expressed MAO B protein by ELISA in transfected COS-7 cells; format: cell-based; parameters: MAO B Expressed: unit not given here; details: cofactor added with MAO B cDNA into Rib^- COS-7 cells; 48 hours; mean ± SE, three experiments
Description: Total protein concentrations of samples containing MAO B holoenzyme, apoenzyme, or variant MAO Bs were determined by a MicroBCA kit (Pierce). All samples were then adjusted to equal protein concentrations and assayed for MAO B protein by ELISA using a modification of the method of Yeomanson and Billett (25) as described previously (18).
MAO B cDNA was expressed sequentially at different time intervals in these cells during this riboflavin depletion process (FIG. 2). Each data point in FIG. 2 represents an individual expression assay. For each assay, a sample of COS-7 cells grown in riboflavin-free medium were transfected with MAO B cDNA via electroporation. Concurrently, Rib^+ COS-7 cells were transfected with MAO B cDNA to serve as a control. Following incubation for 48 hours, the cells were homogenized and assays were performed to determine protein concentration, MAO B concentration by ELISA using polyclonal antibodies, and MAO B activity using [^14 C] benzylamine.
An equal amount of MAO B cDNA (15 μg) was expressed in both types of […]

[3] = system: MAO B; assay: [^14 C] FAD incorporation into wild-type or mutant MAO B in Rib^- COS-7 cells (immunoprecipitation, fluorography); format: binding, human; details: about 59 kDa; equal MAO B concentrations
Description: Mutagenesis was carried out by the method of Deng and Nickoloff (22) using a Transformer Site-directed Mutagenesis kit (Clontech). Glu in position 34 was replaced with Asp (E34D), Gln (E34Q), or Ala (E34A), and Val in position 10 was replaced with Ile (V10I) as described by Kwan et al. (18).
as §1
Transfected Rib^+ - or Rib^- COS-7 cells were homogenized, and extracted with 0.25% Triton X-100 for 50 minutes at 4° C. The cell lysates were centrifuged at 1300×g for 5 minutes, and an aliqout of each supernatant was analyzed for MAO B concentration by ELISA. All supernatants were then adjusted to equal MAO B concentration and incubated with polyclonal goat anti-MAO B antibody (10 μg) overnight at 4° C. Protein-G Sepharose beads (Pierce) were added (50 μl) and incubation was continued for 3 hours. The protein-G Sepharose/goat antibody/MAO B immmunocomplex was collected by centrifugation at 10,000×g for 20 seconds and washed 6 times with 150 μl of 20 mM Tris buffer, pH 8.0. The immunocomplex was then dissolved in SDS-PAGE sample buffer and analyzed by Western blot or fluorography.
The immunoprecipitated proteins (obtained as described above) were subjected to electrophoresis in a 10% SDS-polyacrylamide gel and examined by Western blotting as previously described (18). The immunoprecipitated proteins (obtained as described above) were subjected to electrophoresis in a 10% SDS-polyacrylamide gel. The SDS-PAGE gel was fixed by soaking in 7% acetic acid, 10% methanol, 83% H2 O for 1 hour, and then processed for fluorography as described by Bonner and Laskey (27). The dried gel was exposed to Kodak X-OMAT AR film at -80° C. for 2 weeks.
The expressed wild-type and variant MAO Bs were adjusted to equal concentrations using ELISA before immunoprecipitation, and then analyzed by fluorography. The amount of incorporation of [^14 C] […] FAD was incorporated into the enzyme.

| Molecule | MAO B activity relative to that obtained with riboflavin ([1]; Rib^- COS-7 cells) | Enzymatic Activity [1] | Percent of Holo-MAO B Activity [1] [%] | Percent of Holo-MAO B Activity ([1]; listed as 8α-hydroxyriboflavin) [%] | MAO B Expressed [2] | restoration of active MAO B (in words) [1] | [^14 C] FAD incorporation (band on fluorogram) [3] |
| --- | --- | --- | --- | --- | --- | --- | --- |
| Cc1cc2nc3c(=O)[nH]c(=O)nc-3n(C[C@H](O)[C@H](O)[C@H](O)CO)c2cc1CO [8α-OH Rib, 8α-hydroxyriboflavin] | about one half of that obtained with the addition of riboflavin | 0.45 ± 0.01 μmol benzylamine/minute/mg MAO | 39.8 | 40 | 0.95 ± 0.08 | – | – |
| Cc1cc2nc3c(=O)[nH]c(=O)nc-3n(C[C@H](O)[C@H](O)[C@H](O)COP(=O)(O)O)c2cc1C [FMN] | – | 0.85 ± 0.03 μmol benzylamine/minute/mg MAO | – | – | 0.81 ± 0.17 | equal levels of MAO B activity | – |
| NC(=O)c1ccc[n+]([C@@H]2O[C@H](COP(=O)(O)OP(=O)(O)OC[C@H]3O[C@@H](n4cnc5c(N)ncnc54)[C@H](O)[C@@H]3O)[C@@H](O)[C@H]2O)c1 [NAD^+] | – | 0.02 ± 0.00 μmol benzylamine/minute/mg MAO | 1.8 | – | 1.14 ± 0.06 | did not yield active MAO B | – |
| Cc1cc2nc3c(=O)[nH]c(=O)nc-3n(C[C@H](O)[C@H](O)[C@H](O)CO)c2cc1C [Riboflavin, riboflavin] | – | 0.86 ± 0.06 μmol benzylamine/minute/mg MAO | 76.1 | – | 0.90 ± 0.13 | equal levels of MAO B activity | – |
| B1 | – | – | – | – | – | – | dark band |
| B2 | – | – | – | – | – | – | dark band |
